Patent US6737383B1, “Herbicidal oxadiazolidines” (priority 1999, dated 2004)

How the values were obtained:
purple nutsedge = assay: Test B pre/postemergence purple nutsedge; type: in vivo, Cyperus rotundus
How it was run: (§1)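 Response is a visual 0-to-10 score relative to untreated plants, where 0 means no effect and 10 means complete control, taken twelve to sixteen days after application. Treatments went onto soil at planting and onto foliage of 1- to 4-leaf plants, using a surfactant-containing non-phytotoxic solvent.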

bedstraw = assay: Test B pre/postemergence bedstraw; type: in vivo, Galium aparine
How it was run: as §1

corn = assay: Test B pre/postemergence corn; type: in vivo, Zea mays
How it was run: as §1

surinam grass = assay: Test B pre/postemergence surinam grass; type: in vivo, Brachiaria decumbens
How it was run: as §1

velvetleaf = assay: Test B pre/postemergence velvetleaf; type: in vivo, Abutilon theophrasti
How it was run: as §1

soybean = assay: Test B pre/postemergence soybean; type: in vivo, Glycine max
How it was run: as §1

cocklebur = assay: Test B pre/postemergence cocklebur; type: in vivo, Xanthium strumarium
How it was run: as §1

pigweed = assay: Test B pre/postemergence pigweed; type: in vivo, Amaranthus retroflexus
How it was run: as §1

smallflower flatsedge = assay: Test B flood test smallflower flatsedge; type: in vivo, Cyperus difformis
How it was run: (§2)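 Flood test on plants grown to the 2-leaf stage; treated plants kept in greenhouse twelve to sixteen days, then visually rated against controls on a 0 (no effect) to 10 (complete control) scale.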

rice = assay: Test B flood test rice; type: in vivo, Oryza sativa
How it was run: as §2

wheat = assay: Test B pre/postemergence wheat; type: in vivo, Triticum aestivum
How it was run: as §1

bamyardgrass = assay: Test B flood test barnyardgrass; type: in vivo, Echinochloa crus-galli
How it was run: as §2

rape = assay: Test B pre/postemergence rape; type: in vivo, Brassica napus
How it was run: as §1

sugar beet = assay: Test B pre/postemergence sugar beet; type: in vivo, Beta vulgaris
How it was run: as §1

wild oat = assay: Test B pre/postemergence wild oat; type: in vivo, Avena fatua
How it was run: as §1

duck salad = assay: Test B flood test duck salad; type: in vivo, Heteranthera limosa
How it was run: as §2

morningglory = assay: Test B pre/postemergence morningglory; type: in vivo, Ipomoea hederacea
How it was run: as §1

giant foxtail = assay: Test B pre/postemergence giant foxtail; type: in vivo, Setaria faberii
How it was run: as §1

crabgrass = assay: Test B pre/postemergence crabgrass; type: in vivo, Digitaria sanguinalis
How it was run: as §1

blackgrass = assay: Test B pre/postemergence blackgrass; type: in vivo, Alopecurus myosuroides
How it was run: as §1

[1] = Preemergence, Rate 62 g/ha, scale of 0 to 10 where 0 is no effect and 10 is complete control
[2] = Preemergence, Rate 250 g/ha, scale of 0 to 10 where 0 is no effect and 10 is complete control
[3] = Preemergence, Rate 500 g/ha, scale of 0 to 10 where 0 is no effect and 10 is complete control
[4] = Rate 125 g/ha, Preemergence, scale of 0 to 10 where 0 is no effect and 10 is complete control
[5] = Rate 500 g/ha, Postemergence, scale 0 to 10, 0 no effect, 10 complete control
[6] = Rate 62 g/ha, Postemergence, scale of 0 to 10 where 0 is no effect and 10 is complete control
[7] = Rate 125 g/ha, Postemergence, scale 0 to 10
[8] = Rate 62 g/ha, headed Pre-emergence (flood test species), scale 0 to 10 (0 no effect, 10 complete control)
[9] = Rate 125 g/ha, Pre-emergence, flood test species, scale 0 to 10 where 0 is no effect and 10 is complete control
[10] = Rate 250 g/ha, Pre-emergence, flood-test species, scale 0 to 10, 0 is no effect, 10 is complete control
[11] = Rate 500 g/ha, Pre-emergence, flood test species, scale 0 to 10 (0 no effect, 10 complete control)

CCCCCC#CCn1c(=O)on(C(=O)N(c2ccc(F)cc2)C(C)C)c1=O [Compound 254]
Nutsedge plant response rating (purple nutsedge; [1]): 0
Nutsedge plant response rating (purple nutsedge; [2]): 0
Plant response rating, Nutsedge (purple nutsedge; [3]): 0
Nutsedge plant response rating (purple nutsedge; [4]): 0
Plant response rating (0 to 10; 0 is no effect, 10 is complete control), Nutsedge (purple nutsedge; Rate 250 g/ha, Postemergence): 0
Nutsedge plant response rating (purple nutsedge; [5]): 0
Bedstraw plant response rating (bedstraw; [1]): 0
Bedstraw plant response rating (bedstraw; [2]): 0
Plant response rating, Bedstraw (bedstraw; [3]): 0
Bedstraw plant response rating (bedstraw; [6]): 0
Bedstraw plant response rating (bedstraw; [7]): 4
Bedstraw plant response rating (bedstraw; [4]): 0
Plant response rating (0 to 10; 0 is no effect, 10 is complete control), Bedstraw (bedstraw; Rate 250 g/ha, Postemergence): 4
Bedstraw plant response rating (bedstraw; [5]): 4
Corn plant response rating (corn; [1]): 0
Corn plant response rating (corn; [2]): 0
Plant response rating, Corn (corn; [3]): 0
Corn plant response rating (corn; [6]): 0
Corn plant response rating (corn; [7]): 0
Corn plant response rating (corn; [4]): 0
Plant response rating (0 to 10; 0 is no effect, 10 is complete control), Corn (corn; Rate 250 g/ha, Postemergence): 0
Corn plant response rating (corn; [5]): 0
B. signalgrass plant response rating (surinam grass; [1]): 0
B. signalgrass plant response rating (surinam grass; [2]): 0
Plant response rating, B. signalgrass (surinam grass; [3]): 0
B. signalgrass plant response rating (surinam grass; [6]): 0
B. signalgrass plant response rating (surinam grass; Rate 125 g/ha, Postemergence, scale 0 (no effect) to 10 (complete control)): 0
B. signalgrass plant response rating (surinam grass; [4]): 0
Plant response rating (0 to 10; 0 is no effect, 10 is complete control), B. signalgrass (surinam grass; Rate 250 g/ha, Postemergence): 0
B. signalgrass plant response rating (surinam grass; [5]): 0
Velvetleaf plant response rating (velvetleaf; [1]): 0
Velvetleaf plant response rating (velvetleaf; [2]): 0
Plant response rating, Velvetleaf (velvetleaf; [3]): 0
Velvetleaf plant response rating (velvetleaf; [4]): 0
Velvetleaf plant response rating (velvetleaf; [5]): 2
Soybean plant response rating (soybean; [1]): 0
Soybean plant response rating (soybean; [2]): 0
Plant response rating, Soybean (soybean; [3]): 0
Soybean plant response rating (soybean; [4]): 0
Soybean plant response rating (soybean; [5]): 2
Cocklebur plant response rating (cocklebur; [1]): 0
Cocklebur plant response rating (cocklebur; [2]): 0
Plant response rating, Cocklebur (cocklebur; [3]): 0
Cocklebur plant response rating (cocklebur; [6]): 0
Cocklebur plant response rating (cocklebur; [7]): 0
Cocklebur plant response rating (cocklebur; [4]): 0
Plant response rating (0 to 10; 0 is no effect, 10 is complete control), Cocklebur (cocklebur; Rate 250 g/ha, Postemergence): 0
Cocklebur plant response rating (cocklebur; [5]): 0
Redroot pigweed plant response rating (pigweed; [1]): 0
Redroot pigweed plant response rating (pigweed; [2]): 0
Plant response rating, Redroot pigweed (pigweed; [3]): 0
Redroot pigweed plant response rating (pigweed; [4]): 0
Plant response rating (0 to 10; 0 is no effect, 10 is complete control), Redroot pigweed (pigweed; Rate 250 g/ha, Postemergence): 3
Redroot pigweed plant response rating (pigweed; [5]): 6
S. Flatsedge plant response rating (smallflower flatsedge; [8]): 0
S. Flatsedge plant response rating (smallflower flatsedge; [9]): 0
S. Flatsedge plant response rating (smallflower flatsedge; [10]): 0
S. Flatsedge plant response rating (smallflower flatsedge; [11]): 0
Rice plant response rating (rice; [8]): 0
Rice plant response rating (rice; [9]): 0
Rice plant response rating (rice; [10]): 0
Rice plant response rating (rice; [11]): 0
Wheat plant response rating (wheat; [1]): 0
Wheat plant response rating (wheat; [2]): 0
Plant response rating, Wheat (wheat; [3]): 0
Wheat plant response rating (wheat; [4]): 0
Wheat plant response rating (wheat; [5]): 0
Barnyardgrass plant response rating (bamyardgrass; [8]): 0
Barnyardgrass plant response rating (bamyardgrass; [9]): 0
Barnyardgrass plant response rating (bamyardgrass; [10]): 0
Barnyardgrass plant response rating (bamyardgrass; [11]): 0
Rape plant response rating (rape; [1]): 0
Rape plant response rating (rape; [2]): 2
Plant response rating, Rape (rape; [3]): 6
Rape plant response rating (rape; [4]): 0
Plant response rating (0 to 10; 0 is no effect, 10 is complete control), Rape (rape; Rate 250 g/ha, Postemergence): 2
Rape plant response rating (rape; [5]): 2
Sugarbeets plant response rating (sugar beet; [1]): 0
Sugarbeets plant response rating (sugar beet; [2]): 2
Plant response rating, Sugarbeets (sugar beet; [3]): 6
Sugarbeets plant response rating (sugar beet; [4]): 2
Sugarbeets plant response rating (sugar beet; [5]): 7
Wild oats plant response rating (wild oat; [1]): 0
Wild oats plant response rating (wild oat; [2]): 0
Plant response rating, Wild oats (wild oat; [3]): 2
Wild oats plant response rating (wild oat; [4]): 0
Wild oats plant response rating (wild oat; [5]): 0
Ducksalad plant response rating (duck salad; [8]): 0
Ducksalad plant response rating (duck salad; [9]): 0
Ducksalad plant response rating (duck salad; [10]): 0
Ducksalad plant response rating (duck salad; [11]): 0
Morningglory plant response rating (morningglory; [1]): 0
Morningglory plant response rating (morningglory; [2]): 0
Plant response rating, Morningglory (morningglory; [3]): 0
Morningglory plant response rating (morningglory; [4]): 0
Plant response rating (0 to 10; 0 is no effect, 10 is complete control), Morningglory (morningglory; Rate 250 g/ha, Postemergence): 9
Morningglory plant response rating (morningglory; [5]): 9
Giant foxtail plant response rating (giant foxtail; [1]): 0
Giant foxtail plant response rating (giant foxtail; [2]): 6
Plant response rating, Giant foxtail (giant foxtail; [3]): 10
Giant foxtail plant response rating (giant foxtail; [4]): 3
Plant response rating (0 to 10; 0 is no effect, 10 is complete control), Giant foxtail (giant foxtail; Rate 250 g/ha, Postemergence): 0
Giant foxtail plant response rating (giant foxtail; [5]): 0
Crabgrass plant response rating (crabgrass; [1]): 0
Crabgrass plant response rating (crabgrass; [2]): 0
Plant response rating, Crabgrass (crabgrass; [3]): 3
Crabgrass plant response rating (crabgrass; [4]): 0
Plant response rating (0 to 10; 0 is no effect, 10 is complete control), Crabgrass (crabgrass; Rate 250 g/ha, Postemergence): 0
Crabgrass plant response rating (crabgrass; [5]): 0
Blackgrass plant response rating (blackgrass; [1]): 0
Blackgrass plant response rating (blackgrass; [2]): 0
Plant response rating, Blackgrass (blackgrass; [3]): 4
Blackgrass plant response rating (blackgrass; [6]): 0
Blackgrass plant response rating (blackgrass; [7]): 0
Blackgrass plant response rating (blackgrass; [4]): 0
Plant response rating (0 to 10; 0 is no effect, 10 is complete control), Blackgrass (blackgrass; Rate 250 g/ha, Postemergence): 0
Blackgrass plant response rating (blackgrass; [5]): 0
